# According to ChEMBL document CHEMBL4219040, “Modulation of Glycine-Mediated Spinal Neurotransmission for the Treatment of Chronic Pain” (J Med Chem, 2018):
# Columns and labels:
# [1] = target: T1, Glycine receptor alpha-3/beta (Homo sapiens, UniProt O75311+P48167); assay: Positive allosteric modulation of human GlyRalpha3beta expressed in CHO cells assessed as potentiation of EC20 glycine-induced ion flux by HT assay; assay type: cell-based
# [2] = target: T1, Glycine receptor alpha-3/beta; assay: Positive allosteric modulation of human GlyRalpha3beta expressed in CHO cells assessed as potentiation of EC20 glycine-induced response at 5.9 uM by fluorescence based HTS assay; assay type: cell-based
# [3] = target: T1, Glycine receptor alpha-3/beta; assay: Positive allosteric modulation of human GlyRalpha3beta expressed in CHO cells assessed as potentiation of EC5 to EC10 glycine-induced response at 10 uM by manual patch clamp assay; assay type: cell-based
# [4] = target: T1, Glycine receptor alpha-3/beta; assay: Positive allosteric modulation of human GlyRalpha3beta expressed in CHO cells assessed as potentiation of EC20 glycine-induced ion flux at 10 uM by HT assay; assay type: cell-based
# [5] = target: T2, Sodium- and chloride-dependent glycine transporter 2 (Homo sapiens, UniProt Q9Y345); assay: Inhibition of GlyT-2 (unknown origin)
# T2 sequence (Q9Y345 whole entry): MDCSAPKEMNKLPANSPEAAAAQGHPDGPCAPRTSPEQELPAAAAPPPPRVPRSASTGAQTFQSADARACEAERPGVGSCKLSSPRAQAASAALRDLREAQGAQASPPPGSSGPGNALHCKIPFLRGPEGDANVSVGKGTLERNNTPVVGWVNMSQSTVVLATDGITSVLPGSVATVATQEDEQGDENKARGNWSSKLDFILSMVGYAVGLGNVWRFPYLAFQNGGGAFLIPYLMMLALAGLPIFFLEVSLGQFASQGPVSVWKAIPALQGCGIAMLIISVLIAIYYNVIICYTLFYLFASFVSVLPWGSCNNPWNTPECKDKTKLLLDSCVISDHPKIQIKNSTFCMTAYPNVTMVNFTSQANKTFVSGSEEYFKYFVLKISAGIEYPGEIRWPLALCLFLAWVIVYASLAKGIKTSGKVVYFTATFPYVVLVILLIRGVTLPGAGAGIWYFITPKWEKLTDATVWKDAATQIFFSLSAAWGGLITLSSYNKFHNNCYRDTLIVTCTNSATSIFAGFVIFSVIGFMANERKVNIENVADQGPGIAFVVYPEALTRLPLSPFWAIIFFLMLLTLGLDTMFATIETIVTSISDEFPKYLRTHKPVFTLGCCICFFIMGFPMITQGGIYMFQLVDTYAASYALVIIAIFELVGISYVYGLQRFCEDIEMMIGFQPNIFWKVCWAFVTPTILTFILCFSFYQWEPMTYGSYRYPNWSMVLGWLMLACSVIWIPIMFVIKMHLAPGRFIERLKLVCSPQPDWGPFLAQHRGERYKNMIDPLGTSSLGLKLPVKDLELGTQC
# [6] = system: Mus musculus; assay: Antiallodynic activity in ddY mouse partial sciatic nerve ligation-injury model assessed as inhibition of mechanical allodynia by measuring paw withdrawal threshold in response to probing with von Frey hairs administered via iv route; assay type: functional
# [7] = system: Rattus norvegicus; assay: Analgesic activity in sc dosed formalin-induced pain rat model by formalin test; assay type: functional
# [8] = target: 5-hydroxytryptamine receptor 2A (Homo sapiens, UniProt P28223); assay: Antagonist activity at human 5-HT2A; assay type: functional
# [9] = system: Rattus norvegicus; assay: Antiallodynic activity in po dosed rat spinal nerve ligation model assessed as reduction in mechanical allodynia; assay type: functional
# [10] = system: Mus musculus; assay: Analgesic activity in CFA-induced mechanical hyperalgesia C57BL/6J mouse model assessed as reduction in mechanical paw withdrawal threshold administered sc measured after 2 hrs; assay type: functional, organism-based
# [11] = system: Mus musculus; assay: In vivo inhibition of GlyT in CFA-induced mechanical hyperalgesia C57BL/6J mouse model assessed as increase in extracellular glycine level in CSF at 200 mg/kg, sc relative to basal level; assay type: functional
# [12] = organism: Rattus norvegicus; assay: Antiallodynic activity in Sprague-Dawley rat model of spared nerve injury-induced allodynia assessed as inhibition of electrically evoked inhibitory post-synaptic current amplitude in spinal cord by electrophysiology method; assay type: functional
# [13] = system: Mus musculus; assay: In vivo receptor occupancy at GlyT-2 in formalin-induced pain mouse model at 20 mg/kg, ip; assay type: functional
# [14] = system: Mus musculus; assay: In vivo receptor occupancy at GlyT-2 in formalin-induced pain mouse model at 25 mg/kg, ip; assay type: functional
# [15] = target: T3, Sodium- and chloride-dependent glycine transporter 1 (Homo sapiens, UniProt P48067); assay: Inhibition of human GlyT-1 expressed in CHO cells assessed as reduction in [3H]-glycine uptake; assay type: cell-based
# T3 sequence (P48067 whole entry): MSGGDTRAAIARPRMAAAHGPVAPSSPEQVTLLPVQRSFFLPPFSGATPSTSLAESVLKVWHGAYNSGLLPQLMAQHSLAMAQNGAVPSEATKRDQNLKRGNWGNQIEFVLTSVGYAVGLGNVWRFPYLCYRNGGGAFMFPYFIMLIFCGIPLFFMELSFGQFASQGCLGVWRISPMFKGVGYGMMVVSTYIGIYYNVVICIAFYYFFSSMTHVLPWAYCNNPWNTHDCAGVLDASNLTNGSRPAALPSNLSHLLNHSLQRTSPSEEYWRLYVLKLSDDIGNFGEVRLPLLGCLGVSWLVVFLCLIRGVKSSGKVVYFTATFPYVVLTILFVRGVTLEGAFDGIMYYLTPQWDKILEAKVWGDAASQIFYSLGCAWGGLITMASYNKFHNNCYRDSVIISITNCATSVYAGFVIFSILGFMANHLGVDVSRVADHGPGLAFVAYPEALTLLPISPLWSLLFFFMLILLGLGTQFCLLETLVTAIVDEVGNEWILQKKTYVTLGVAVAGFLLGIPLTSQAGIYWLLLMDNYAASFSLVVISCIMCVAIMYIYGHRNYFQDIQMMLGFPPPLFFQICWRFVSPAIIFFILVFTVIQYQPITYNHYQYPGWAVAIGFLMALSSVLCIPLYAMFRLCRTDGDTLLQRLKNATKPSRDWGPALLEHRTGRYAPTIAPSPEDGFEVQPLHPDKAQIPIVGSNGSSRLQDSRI
# [16] = organism: Rattus norvegicus; assay: Inhibition of GlyT in rat spinal cord lamina X neuron assessed as increase in extracellular glycine level at 10 uM relative to basal level; parameters: scale not given: the % may be the effect or the level left
# [17] = Toxicity in ip dosed formalin-induced pain mouse model; assay type: organism-based; conditions: in vivo
# [18] = system: Mus musculus; assay: In vivo receptor occupancy at GlyT-2 in formalin-induced pain mouse model at 0.06 mg/kg, ip; assay type: functional
# [19] = system: Mus musculus; assay: Analgesic activity in formalin-induced pain mouse model assessed as reduction in phase 2 paw licking behavior at 100 mg/kg, ip; assay type: functional; parameters: scale not given: the % may be the effect or the level left
# [20] = Unbound brain to plasma concentration ratio in mouse; assay type: ADME, cell-free; conditions: read-out: K(p,uu,brain)
# [21] = system: Mus musculus; assay: Analgesic activity in formalin-induced pain mouse model assessed as reduction in phase 2 paw licking behavior at 25 mg/kg, ip; assay type: functional; parameters: scale not given: the % may be the effect or the level left
# [22] = system: Mus musculus; assay: In vivo receptor occupancy at GlyT-2 in formalin-induced pain mouse model at 100 mg/kg, ip; assay type: functional
# [23] = target: T3, Sodium- and chloride-dependent glycine transporter 1; assay: Inhibition of human GlyT-1 expressed in HEK293 cells assessed as reduction in [3H]-glycine uptake preincubated for 30 mins followed by 3H]-glycine addition measured after 30 mins by liquid scintillation counting method; assay type: cell-based
# [24] = organism: Rattus norvegicus; assay: Antiallodynic activity in spinal cord injury Sprague-Dawley rat model assessed as inhibition of non-voiding contraction frequency at 10 ug, it relative to control; assay type: functional
# [25] = organism: Homo sapiens; assay: Selectivity ratio of IC50 for human GlyT-1 expressed in HEK293 cells to IC50 for human GlyT-2 expressed in HEK293 cells; assay type: cell-based
# [26] = organism: Rattus norvegicus; assay: Antiallodynic activity in spinal cord injury Sprague-Dawley rat model assessed as inhibition of non-voiding contraction frequency at 30 ug, it relative to control; assay type: functional
# [27] = target: T2, Sodium- and chloride-dependent glycine transporter 2; assay: Inhibition of human GlyT-2 expressed in HEK293 cells assessed as reduction in [3H]-glycine uptake preincubated for 30 mins followed by 3H]-glycine addition measured after 30 mins by liquid scintillation counting method; assay type: cell-based
# [28] = organism: Rattus norvegicus; assay: Antiallodynic activity in spinal cord injury Sprague-Dawley rat model assessed as inhibition of non-voiding contraction amplitude at 30 ug, it relative to control; assay type: functional
# [29] = organism: Rattus norvegicus; assay: Antiallodynic activity in spinal cord injury Sprague-Dawley rat model assessed as inhibition of non-voiding contraction amplitude at 10 ug, it relative to control; assay type: functional
# [30] = target: T3, Sodium- and chloride-dependent glycine transporter 1; assay: Inhibition of human GlyT-1
# [31] = target: T4, P2X purinoceptor 7 (Mus musculus) (UniProt Q9Z1M0); assay: Agonist activity at P2X7 receptor in C57Bl6 mouse lumbar spinal cord slices assessed as increase in glycinergic inhibitory postsynaptic currents after 20 to 26 mins by electrophysiology method relative to control; parameters: scale not given: the % may be the effect or the level left
# T4 sequence (whole entry): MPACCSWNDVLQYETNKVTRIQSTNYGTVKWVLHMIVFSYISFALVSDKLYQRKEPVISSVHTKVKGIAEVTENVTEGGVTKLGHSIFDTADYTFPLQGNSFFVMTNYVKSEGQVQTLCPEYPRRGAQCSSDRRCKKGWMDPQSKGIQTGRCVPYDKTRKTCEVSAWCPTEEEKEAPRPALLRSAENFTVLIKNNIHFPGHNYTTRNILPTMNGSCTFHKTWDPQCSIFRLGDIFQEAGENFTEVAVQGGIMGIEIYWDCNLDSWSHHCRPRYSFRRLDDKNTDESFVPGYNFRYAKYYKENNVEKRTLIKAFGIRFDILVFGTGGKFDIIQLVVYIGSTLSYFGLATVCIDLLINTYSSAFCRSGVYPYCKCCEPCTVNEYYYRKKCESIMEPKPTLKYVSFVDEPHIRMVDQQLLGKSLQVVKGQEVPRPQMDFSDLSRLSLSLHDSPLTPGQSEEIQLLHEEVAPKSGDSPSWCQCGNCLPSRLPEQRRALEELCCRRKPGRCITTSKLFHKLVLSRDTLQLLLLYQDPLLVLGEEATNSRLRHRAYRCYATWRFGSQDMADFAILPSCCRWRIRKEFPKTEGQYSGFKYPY
# T1 sequence (O75311 whole entry): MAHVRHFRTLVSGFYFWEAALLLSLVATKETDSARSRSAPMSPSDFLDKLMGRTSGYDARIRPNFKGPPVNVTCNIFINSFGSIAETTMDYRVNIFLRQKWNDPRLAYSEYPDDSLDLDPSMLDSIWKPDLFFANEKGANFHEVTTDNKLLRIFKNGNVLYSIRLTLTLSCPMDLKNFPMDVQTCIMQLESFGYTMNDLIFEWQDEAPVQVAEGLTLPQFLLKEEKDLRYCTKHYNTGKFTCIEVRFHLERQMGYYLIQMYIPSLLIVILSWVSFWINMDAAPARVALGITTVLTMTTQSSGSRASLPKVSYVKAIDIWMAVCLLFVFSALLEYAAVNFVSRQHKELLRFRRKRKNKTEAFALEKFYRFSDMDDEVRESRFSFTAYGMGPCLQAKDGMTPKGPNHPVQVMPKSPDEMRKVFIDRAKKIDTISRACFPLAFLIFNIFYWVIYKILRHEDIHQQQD
# T1 sequence (P48167 whole entry): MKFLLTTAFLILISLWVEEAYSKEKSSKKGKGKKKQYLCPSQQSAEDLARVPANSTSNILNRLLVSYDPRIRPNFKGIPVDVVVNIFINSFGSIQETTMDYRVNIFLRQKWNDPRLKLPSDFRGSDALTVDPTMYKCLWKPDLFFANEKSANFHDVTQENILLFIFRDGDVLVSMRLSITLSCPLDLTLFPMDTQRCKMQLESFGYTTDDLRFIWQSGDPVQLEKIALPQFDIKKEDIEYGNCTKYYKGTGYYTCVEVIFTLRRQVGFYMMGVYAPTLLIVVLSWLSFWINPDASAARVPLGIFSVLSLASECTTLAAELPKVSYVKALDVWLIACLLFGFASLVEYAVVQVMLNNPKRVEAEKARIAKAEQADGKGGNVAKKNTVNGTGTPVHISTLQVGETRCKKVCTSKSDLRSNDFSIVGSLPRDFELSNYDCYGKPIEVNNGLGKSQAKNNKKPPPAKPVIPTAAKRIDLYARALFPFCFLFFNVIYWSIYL
# Chain of 5-hydroxytryptamine receptor 2A (P28223 whole entry): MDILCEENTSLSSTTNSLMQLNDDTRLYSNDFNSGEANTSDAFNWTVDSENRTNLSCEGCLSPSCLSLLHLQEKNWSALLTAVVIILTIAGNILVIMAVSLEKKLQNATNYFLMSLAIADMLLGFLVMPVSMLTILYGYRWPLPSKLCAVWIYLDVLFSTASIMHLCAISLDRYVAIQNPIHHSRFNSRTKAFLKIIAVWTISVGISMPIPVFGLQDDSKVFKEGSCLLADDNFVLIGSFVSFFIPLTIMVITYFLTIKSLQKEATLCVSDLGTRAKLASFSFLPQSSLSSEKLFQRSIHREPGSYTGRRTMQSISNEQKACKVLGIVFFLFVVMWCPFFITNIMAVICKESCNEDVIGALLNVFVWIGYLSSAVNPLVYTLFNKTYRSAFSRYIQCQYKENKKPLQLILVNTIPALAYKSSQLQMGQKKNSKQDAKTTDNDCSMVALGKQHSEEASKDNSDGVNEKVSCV
smiles,measurement,setting,value
O=C(O)c1ccc(C[C@H]2Sc3c(F)cccc3N(Cc3ccccc3C(F)(F)F)C2=O)cc1,EC50,[1],0.661 µM
same,Activity,[2],52%
same,Activity,[3],396%
same,Activity,[4],59%
CCCCC/C=C\C/C=C\C/C=C\C/C=C\CCCC(=O)NCC(=O)O [ARACHIDONOYL GLYCINE],IC50,[5],3 µM
NCC1(CC(=O)O)CCCCC1 [GABAPENTIN],ED50,[6],8200 ng
CCCCOc1c(OC)cc(C(=O)NCC2(N(C)C)CCOCC2)cc1OC,ED50,[7],20 mg/kg
same,IC50,[8],1.3 µM
same,ED50,[9],80 mg/kg
O=S(=O)(NCCOc1cccc2cccnc12)c1ccccc1,EC50,[1],3.98 µM
same,Activity,[2],65%
same,Activity,[3],2710%
same,Activity,[4],182%
C#Cc1cc(C(=O)OC)cc(-c2ncco2)c1,EC50,[1],10.2 µM
same,Activity,[2],52%
same,Activity,[3],255%
same,Activity,[4],49%
CN1c2ncccc2N(Cc2ccccc2C(F)(F)F)C(=O)[C@H]1Cc1ccc(C(N)=O)cc1,Activity,[2],28%
same,Activity,[3],303%
same,Activity,[4],64%
CCNCC(=O)O,EC50,[10],98 mg/kg
same,inhibition in vivo at 200 mg/kg,[11],25%
NS(=O)(=O)c1cc2c(cc1Cl)NC(C1CC3C=CC1C3)NS2(=O)=O (stereo not drawn) [CYCLOTHIAZIDE],inhibition (INH),[12],37.9%
COc1cc(C(=O)NCC2(N(C)C)CCCC2)cc(OC)c1OCc1ccccc1,Occ,[13],82%
same,Occ,[14],36%
same,IC50,[15],> 100 µM
same,Activity,[16],337%
same,ED50,[6],11 ng
same,MTD,[17],2 mg/kg
same,Occ,[18],6%
same,Activity,[19],80%
same,Kp uu,[20],0.5
same,Activity,[21],33%
same,Occ,[22],60%
CN1C(=O)[C@@H]2CN(S(=O)(=O)c3ccc4c(c3)OCO4)C[C@@H]2c2cnccc21,Activity,[2],94%
same,Activity,[3],1350%
same,Activity,[4],95%
CC(C)(C)c1cc(C(C)(C)C)c(O)c(C(=O)O)c1O,EC50,[1],0.0135 µM
same,Activity,[2],67%
same,Activity,[3],2060%
same,Activity,[4],182%
N[C@@H](COC(c1cccc(F)c1)c1ccccc1OCc1ccccc1)C(=O)O (stereo partly drawn),IC50,[23],4 µM
same,inhibition (INH),[24],65%
same,Ratio IC50,[25],40
same,inhibition (INH),[26],76%
same,Kp uu,[20],0.036
same,IC50,[27],0.1 µM
same,inhibition (INH),[28],37%
same,inhibition (INH),[29],26%
O=[N+]([O-])c1cccc(S(=O)(=O)NCCOc2cccc3cccnc23)c1,Activity,[2],23%
same,Activity,[3],136%
same,Activity,[4],98%
COc1ccc2c(c1)CC[C@H](CN(C)CC(=O)O)[C@@H]2c1ccccc1 [ORG-25935],IC50,[30],0.1 µM
Nc1ncnc2c1ncn2[C@@H]1O[C@H](COP(=O)(O)OP(=O)(O)OP(=O)(O)O)[C@@H](OC(=O)c2ccc(C(=O)c3ccccc3)cc2)[C@H]1O,Activity,[31],135%
O=C(O)c1ccc(C[C@@H]2Sc3ccccc3N(Cc3ccccc3C(F)(F)F)C2=O)cc1F,Activity,[2],161%
same,Activity,[3],259%
same,Activity,[4],44%
CNCC(=O)O [SARCOSINE],IC50,[30],91 µM
